The values below come from article PMC11474028, “Lipopeptide antibiotics disrupt interactions of undecaprenyl phosphate with UptA” (Proceedings of the National Academy of Sciences of the …, 2024).

The target in assay [1] is T1, UptA (Bacillus subtilis, UniProt O31823). In words: biochemical. Type of assay: binding. Conditions: for binding to UptA by lipid chain length (in words): 4 µM UptA, 10-fold molar excess (40 µM) of lipid, pH 8.0, 200 mM ammonium acetate, 0.05% LDAO. As for the experimental part: We explored the binding affinity of UptA toward C55-P by recording mass spectra for solutions containing 2.5 µM UptA and 0 to 40 µM C55-P in 200 mM ammonium acetate, 0.05% LDAO at pH 8.0. […] Further increase in the concentration of C55-P enhanced the intensity of the UptA:C55-P complex, together with the emergence of additional binding events (Fig. 2A). We deconvoluted the spectra ([34]) to extract mean relative intensities of bound and unbound forms of UptA in the spectral series.
T1 sequence (O31823 whole entry): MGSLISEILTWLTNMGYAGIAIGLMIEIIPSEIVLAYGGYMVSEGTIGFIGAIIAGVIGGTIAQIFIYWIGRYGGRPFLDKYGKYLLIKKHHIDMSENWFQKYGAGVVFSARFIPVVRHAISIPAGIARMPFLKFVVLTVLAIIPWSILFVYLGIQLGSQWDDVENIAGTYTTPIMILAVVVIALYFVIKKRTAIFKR
To investigate the binding selectivity of UptA for monophosphate (C55-P) versus diphosphate (C55-PP) forms of the lipid carrier, we performed comparative binding assays. First, we recorded mass spectra for a mixture of UptA with increasing concentrations of C55-PP (SI Appendix, Fig. S3). […] We then fit the data to Hill equation to obtain an apparent Kd for this system.
UptA is a member of the DedA family of transporters whose cellular functions are potentially driven by proton-motive force and provide conditional fitness to bacteria under alkaline conditions ([25], [26], [36]). […] To this end, we equilibrated C55-P with UptA at a protein/ligand molar ratio of 1:4 in a buffer of the same composition but at pH 8.0 and 5.0. […] As a negative control, we tested for pH sensitivity of C55-P binding to MraY, the latter being the downstream enzyme in the peptidoglycan pathway that couples UM5 to C55-P. To this end, we equilibrated MraY and C55-P at a molar ratio of 1:4 in a buffer of pH 8.0 and pH 5.0.
Next, we investigated the chain length selectivity of UptA by testing its interaction with geranylgeranyl phosphate (C20-P), hexaprenyl phosphate (C30-P), and C55-P; the latter representing the native form of the lipid carrier in the model organisms B. subtilis and E. coli ([39]). For this experiment, we incubated 4 µM UptA with a 10-fold molar excess of C20-P, C30-P, and C55-P at pH 8.0 and recorded spectra under the same conditions. […] The length and stereochemistry of lipid tails can influence their interactions with membrane proteins ([40]).
(§1) Detailed experimental procedures are provided in SI Appendix. Briefly, UptA (wild type and mutants) was expressed in E. coli C43(DE3) cells (Lucigen) with GFP fusion on the C-terminus and solubilized from the membrane fraction by n-dodecyl-β-D-maltopyranoside (DDM). After purification by affinity chromatography, the GFP was cleaved by TEV protease and removed, and UptA was further purified by size-exclusion chromatography in a buffer containing 20 mM Tris-HCl (pH 8.0), 200 mM NaCl, 0.02% DDM. Before measurements, proteins were buffer-exchanged into 0.05% LDAO, 200 mM ammonium acetate at the desired pH using a centrifugal buffer exchange device (Micro Bio-Spin 6, Bio-Rad). Stock solutions of lipids were prepared from chloroform/methanol solution by evaporating aliquots of known volume in a SpeedVac. After drying, the lipid films were weighed and resuspended to a final concentration of 0.5 mM in 200 mM ammonium acetate and 0.05% LDAO by vertexing.

Assay [2] deals with T1, UptA. In words: Native MS of phospholipid binding to UptA. Conditions: for UptA-lipid complexes formed (stoichiometry, in words): 4 µM UptA with 10 µM lipid, native MS.
Text: Proteins belonging to the DedA family are a widespread family of transporters and are proposed to flip diverse lipids, including carrier lipids and membrane phospholipids. We therefore probed the interaction of UptA with membrane phospholipids to understand whether the latter could modulate its function. For this purpose, we selected anionic phosphatidylglycerols (PG) and zwitterionic phosphatidylethanolamines (PE), representing the major classes of phospholipid headgroups found in B. subtilis ([41], [42]). We recorded mass spectra of solutions containing 4 µM UptA incubated with 10 µM a15:0-i15:0 PE and 10 µM a15:0-i15:0 PG (a15:0, anteiso-pentadecanoic acid; i15:0, iso-pentadecanoic acid). The fatty acid composition of these lipids closely mimics those of native B. subtilis lipids (see below). The resulting spectra display peaks corresponding to UptA in apo and lipid-bound forms in both cases (Fig. 4 A and B). […] We therefore hypothesize that UptA interacts more favorably with PG than with PE.
To verify the lipid binding preference of UptA with more native-like lipids, we prepared lipid extracts from B. subtilis membranes (Materials and Methods). We then incubate an aliquot of the resulting crude lipids (SI Appendix, Fig. S8) with UptA. The spectra yielded peaks assigned to UptA in complex with cardiolipins (~1,326 Da) and a range of phospholipids, predominantly 694 Da, 721 Da, 748 Da, and 776 Da species (Fig. 4 D and E). To identify these lipids, we performed tandem MS/MS, isolating the lipid species and subjecting it to collisional activation. […] The fatty acid fragments are mixed populations, predominantly 15:0-15:0, 15:0-17:0, 16:0-16:0, and 16:0-18:1 (SI Appendix, Fig. S9) which are the typical fatty acids from B. subtilis membrane phospholipids ([42]). We therefore conclude that UptA interacts more favorably with the anionic cardiolipins and phosphatidylglycerols than with the zwitterionic phosphatidylethanolamines in the membrane lipid extracts.
as §1, with “vertexing. Stock solutions of 0.5 mM amphomycin, aspartocin D, daptomycin, polymyxin B, polymyxin E, and bacitracin were made in the same buffer. All experiments were repeated three times from newly prepared stock solutions. Native mass spectrometry was performed on a Q-Exactive hybrid quadrupole-Orbitrap mass spectrometer (Thermo Fisher Scientific, Bremen, Germany), and lipid identification was performed on an Orbitrap Eclipse Tribrid mass spectrometer (Thermo). […]” for “vertexing.”
Lipid extracts from B. Subtilis
B. subtilis strain 168 (ATCC 23857) was cultivated in […] LB media at 37 °C until OD600 nm 1.2 under aurobic conditions. Cells were harvested by centrifugation at 4,000 g for 20 minutes and resuspended in 20 mM Tris-HCl (pH 8.0), 150 mM NaCl. Cells were lysed by 5-6 passes through a microfluidizer at 20,000 psi. The lysates were clarified by centrifugation at 4,000 g for 10 minutes, and the totoal membrane was pelleted at 120,000 g for 1 h. The membrane pellet was ressupended […]

For assay [3], the target named is T1, UptA. In words: Native MS of antibiotic binding to UptA. Conditions: 2.5 µM UptA, 10 µM C55-P, antibiotic up to 100 µM (polymyxins 100 µM), 0.05% LDAO, 200 mM ammonium acetate, 75 V. As for the experimental part: We next investigate how UptA and its complex with C55-P interact with a range of cell-wall targeting antibiotics including the lipopeptides daptomycin and amphomycin. […] We investigated whether daptomycin affects C55-P binding to UptA by recording spectra for solutions containing 2.5 µM UptA, 10 µM C55-P, and different concentrations of daptomycin.
(§2) Amphomycin and derivatives are known to kill bacteria by forming complexes with free C55-P ([46]), however, whether or not this involves a direct interaction with a protein cellular target is not known. We therefore investigated how amphomycin affects the UptA:C55-P complex. We recorded spectra for solutions containing 2.5 µM UptA, 10 µM C55-P and then equilibrated aliquots with increasing concentrations of amphomycin.
The amphiphilic nature of daptomycin and amphomycin raises the possibility that these lipopeptide antibiotics may promiscuously bind to UptA in a nonspecific manner. We probe this possibility by recording spectra for UptA:C55-P solutions in the presence of 100 µM polymyxin B and 100 µM polymyxin E. These polymyxins are membrane-disrupting lipopeptides that target the outer membrane lipopolysaccharides in Gram-negative bacteria ([47]) but without a known affinity for C55-P or UptA.
To this end, we prepared UptA:C55-P mixtures and then equilibrated aliquots with bacitracin and vancomycin.
as §1, with “vertexing. Stock solutions of 0.5 mM amphomycin, aspartocin D, daptomycin, polymyxin B, polymyxin E, and bacitracin were made in the same buffer. All experiments were repeated three times from newly prepared stock solutions. Native mass spectrometry was performed on a Q-Exactive hybrid quadrupole-Orbitrap mass spectrometer (Thermo Fisher Scientific, Bremen, Germany), and lipid identification was performed on an Orbitrap Eclipse Tribrid mass spectrometer (Thermo). […]” for “vertexing.”

The subject of the next assay is UptA:C55-P complex. In words: Native MS of UptA:C55-P complex in the presence of antibiotics. The assay is classed as binding, Bacillus subtilis. Conditions: 2.5 µM UptA, 10 µM C55-P, 0 to 100 µM antibiotic, 75 V; mean of three independent replicates. As for the experimental part:
as §2
(A) Mass spectra (6+ charge state) for solutions containing 2.5 µM UptA and 10 µM C55-P incubated with 0 to 100 µM amphomycin. (B) Relative intensity of C55-P bound to UptA in the presence of amphomycin and daptomycin. The bar represents the mean of three independent replicates shown as data points and error bars are SD. […] (C) Fraction of C55-P bound to UptA in the presence of cell wall targeting antibiotics. Each sample contains 2.5 µM UptA, 10 µM C55-P and 100 µM of indicated antibiotic, and spectra were acquired using the same instrument settings and collisional activation of 75 V. The bar represents the mean of three independent replicates shown as data points, and the error bar represents SD. […]
as §1, with “vertexing. Stock solutions of 0.5 mM amphomycin, aspartocin D, daptomycin, polymyxin B, polymyxin E, and bacitracin were made in the same buffer. All experiments were repeated three times from newly prepared stock solutions. Native mass spectrometry was performed on a Q-Exactive hybrid quadrupole-Orbitrap mass spectrometer (Thermo Fisher Scientific, Bremen, Germany), and lipid identification was performed on an Orbitrap Eclipse Tribrid mass spectrometer (Thermo). […]” for “vertexing.”

Turning to `CC(C)=CCC/C(C)=C/CC/C(C)=C/CC/C(C)=C/COP(=O)(O)O` [C20-P, geranylgeranyl phosphate], at UptA [1], the “binding to UptA by lipid chain length (in words)” value is “low-intensity peaks corresponding by mass to UptA:C20-P complexes, leaving most of the protein in the apo form”.

In the case of `CC(C)=CCCC(C)=CCCC(C)=CCCC(C)=CCCC(C)=CCCC(C)=CCOP(=O)(O)O` [C30-P, hexaprenyl phosphate], the “binding to UptA by lipid chain length (in words)” value on UptA [1] is reported as “higher binding affinity of UptA to C30-P compared to C20-P”.

`CC(C)=CCC/C(C)=C/CC/C(C)=C/CC/C(C)=C\CC/C(C)=C\CC/C(C)=C\CC/C(C)=C\CC/C(C)=C\CC/C(C)=C\CC/C(C)=C\CC/C(C)=C\COP(=O)(O)OP(=O)(O)O` [C55-PP, undecaprenyl diphosphate]: on UptA [1] (native MS, 200 mM ammonium acetate, pH 8, 0.05% LDAO), the “selectivity of UptA for C55-P versus C55-PP (in words)” value is “UptA bind C55-PP but with lesser intensities compared to C55-P”. On UptA [1] (read-out: apparent Kd for the binding of one ligand molecule (1×) to UptA), the Kd was 15.3 µM.

As for `CCC(C)CCCCCCCCCCC(=O)OC[C@H](COP(=O)(O)OCCN)OC(=O)CCCCCCCCCCCC(C)C` (stereo partly shown) [a15:0-i15:0 PE], the “UptA-lipid complexes formed (stoichiometry, in words)” value on UptA [2] is on record as “only a 1:1 complex”.

Take `CC[C@@H](C)CCCCCCCCCCC(=O)OC[C@H](COP(=O)([O-])OCC(O)CO)OC(=O)CCCCCCCCCCCC(C)C.[Na+]` (stereo partly shown) [a15:0-i15:0 PG]: the “mean relative intensity of UptA in complex with phospholipid, comparison (in words)” value on UptA [2] (4 µM UptA with 10 µM lipid (stated for a15:0-i15:0 lipids), mean of three independent replicates) is recorded as “higher than for a15:0-i15:0 PE”. Moreover, the “UptA-lipid complexes formed (stoichiometry, in words)” value on UptA [2] was 1:1 and 1:2 protein-lipid complexes.

polymyxin B: the “binding of antibiotic to UptA (in words)” value at UptA [3] is on record as “do not bind to UptA”. Also, the “effect of antibiotic on UptA:C55-P complex (in words)” value in the assay with UptA:C55-P complex is given as “attenuation of C55-P binding to UptA (SI Appendix, Fig. S10), but this effect is less significant compared to the impact of amphomycin analogs”.

As to polymyxin E, the “binding of antibiotic to UptA (in words)” value on UptA [3] is given as “do not bind to UptA”. In the assay on UptA:C55-P complex, the “effect of antibiotic on UptA:C55-P complex (in words)” value was “attenuation of C55-P binding to UptA (SI Appendix, Fig. S10), but this effect is less significant compared to the impact of amphomycin analogs”.

With vancomycin, on UptA [3], the “binding of antibiotic to UptA (in words)” value is listed as “bind to UptA but with very low intensities”. The “effect of antibiotic on UptA:C55-P complex (in words)” value in the assay on UptA:C55-P complex is reported as “no observable impact on C55-P binding”.
